For 32 compounds, EC50 results are on record in patent publication US8916702B2 (priority 2012, dated 2014).

In this experiment the test system is HCV pseudoparticles (genotype 1a HCV E1 and E2 envelope, H77C isolate). Description: microbe, parasite or virus in culture. In kind it is cell-based. The following applies: Hepatitis C virus.
The mark [1] stands for this setting: Huh-7, 48 h, read-out: Activity (EC50 class), HCV pseudoparticles, Huh7 cells, luciferase 2 days after infection, average of duplicates.
Where [2] appears, read: Huh-7, read-out: Activity (EC50 class), HCV pseudoparticles (genotype 1a, H77C) in Huh7 cells, EC50 expressed as class A/B.
The mark [3] stands for this setting: Huh-7, 48 h, read-out: Activity (EC50 class), HCV pseudoparticle infection of Huh7 cells, luciferase 2 days after infection, EC50 expressed as class A/B.
[4] abbreviates: Huh-7, 48 h, HCV pseudoparticles (genotype 1a, H77C) in Huh7 cells, average of duplicate, luciferase 2 days after infection.
[5] abbreviates: Huh-7, 48 h, HCV pseudoparticle infection of Huh7 cells, luciferase 2 days after infection, average of duplicates.

SMILES strings stand for the structures. Where two headings read alike, the source gives them in different places.

For the compound `CCc1cccc(NC(=O)C(=O)NCC[C@H](NC(=O)c2ccc(Nc3nc(NC4(c5ccc(Cl)cc5)CC4)nc(OCC(F)(F)F)n3)cc2)C(=O)O)c1` [Compound 3614], under setting [1], the EC50 (as a rule, the midpoint of the concentration-response curve) is 0.01 to 10 nM. With `CC(C)(CNC(=O)C(=O)Nc1nc2c(s1)CCCC2)CNC(=O)c1ccc(Nc2nc(NC3(c4ccc(Cl)cc4)CC3)nc(OCC(F)(F)F)n2)cc1` [Compound 3350], under setting [2], the EC50 lay in the range of 0.01 to 10 nM. On to `COC(=O)[C@H](CCNC(=O)C(=O)NCc1cccc(OC)c1)NC(=O)c1ccc(Nc2nc(NC3(c4ccc(Cl)cc4)CC3)nc(OCC(F)(F)F)n2)cc1` [Compound 1156], for which the EC50 under setting [3] fell in the range of 0.01 to 10 nM. As for `O=C(NC/C(=N/C(=O)c1ccc(Nc2nc(NC3(c4ccc(Cl)cc4)CC3)nc(OCC(F)(F)F)n2)cc1)C(=O)O)C(=O)Nc1ccc(N2CCCC2=O)cc1` [Compound 3165], the EC50 under setting [2] lay within 0.01 to 10 nM. `CC(C)(CNC(=O)C(N)=O)CNC(=O)c1c(F)cc(Nc2nc(NC3(c4ccc(Cl)cc4)CC3)nc(OCC(F)(F)F)n2)cc1F` [Compound 3812]: the 50% effective concentration (EC50) is, setting by setting: (Huh-7, 48 h, HCV pseudoparticles, Huh7 cells, luciferase 2 days after infection, average of duplicates) 0.5 nM; under setting [1], 0.01 to 10 nM. As for `O=C(NCC[C@H](NC(=O)c1ccc(Nc2nc(NC3(c4ccc(Cl)cc4)CC3)nc(OCC(F)(F)F)n2)cc1)C(=O)O)C(=O)Nc1ccc(Cc2ccncc2)cc1` [Compound 3224], the EC50 under setting [2] is 0.01 to 10 nM. Regarding `CC1(C)CC(NC(=O)C(=O)NC[C@H](NC(=O)c2ccc(Nc3nc(NC4(c5ccc(Cl)cc5)CC4)nc(OCC(F)(F)F)n3)cc2)C(=O)O)CC(C)(C)C1` [Compound 1077], the EC50 under setting [3] lay within 0.01 to 10 nM. Turning to `COC(=O)/C(CCNC(=O)C(=O)NC1CCCC(S(=O)(=O)c2ccccc2)C1)=N\C(=O)c1ccc(Nc2nc(NC3(c4ccc(Cl)cc4)CC3)nc(OCC(F)(F)F)n2)cc1` (stereo not shown) [Compound 3584], the EC50 under setting [2] lay in the range of 10 to 1000 nM. On the same count and under the same terms, next, `O=C(NCC[C@H](NC(=O)c1ccc(Nc2nc(NC3(c4ccc(Cl)cc4)CC3)nc(OCC(F)(F)F)n2)cc1)C(=O)O)C(=O)Nc1ccc(N2CCCC2=O)cc1` [Compound 3227]: 0.01 to 10 nM. As to `CC(C)(CNC(=O)C(=O)NC1CCCCCC1)CNC(=O)c1ccc(Nc2nc(NC3(c4ccc(Cl)cc4)CC3)nc(OCC(F)(F)F)n2)cc1` [Compound 1033, N1-(3-(4-(4-(1-(4-chlorophenyl)cyclopropylamino)-6-(2,2,2-trifluoroethoxy)-1,3,5-triazin-2-ylamino)benzamido)-2,2-dimethylpropyl)-N2-cycloheptyloxalamide], under setting [3], the EC50 lay in the range of 0.01 to 10 nM. Consider `CC(O)N1CCN(c2ccc(NC(=O)C(=O)NC[C@H](NC(=O)c3ccc(Nc4nc(NC5(c6ccc(Cl)cc6)CC5)nc(OCC(F)(F)F)n4)cc3)C(=O)O)cc2)CC1` (stereo partly shown) [Compound 3271], for which the EC50 under setting [4] stood at 1.38 nM and the EC50 under setting [2] fell in the range of 0.01 to 10 nM.

On to `COC(=O)[C@H](CNC(=O)C(=O)NC1CCC(F)(F)CC1)NC(=O)c1ccc(Nc2nc(NC3(c4ccc(Cl)cc4)CC3)nc(OCC(F)(F)F)n2)cc1` [Compound 1057], for which the EC50 under setting [3] was in the range of 0.01 to 10 nM.

In the case of `Cc1nnnn1-c1cc(Nc2nc(NC3(c4ccc(Cl)cc4)CC3)nc(OCC(F)(F)F)n2)ccc1C(=O)NCC(C)(C)CNC(=O)C(=O)Nc1cccc(F)c1` [Compound 3517], the EC50 under setting [2] was in the range of 0.01 to 10 nM. For `COC(=O)[C@H](CNC(=O)C(=O)Nc1ccc(Oc2ccc(C(C)(C)C)cc2)nc1)NC(=O)c1ccc(Nc2nc(NC3(c4ccc(Cl)cc4)CC3)nc(OCC(F)(F)F)n2)cc1` [Compound 3698], under setting [1], the 50% effective concentration (EC50) fell in the range of 0.01 to 10 nM. In the case of `O=C(NCC1(CNC(=O)c2ccc(Nc3nc(NC4(c5ccc(Cl)cc5)CC4)nc(OCC(F)(F)F)n3)cc2)CC1)C(=O)Nc1cccc(F)c1` [Compound 3001], under setting [2], the EC50 was in the range of 0.01 to 10 nM. `CC(C)(CNC(=O)C(=O)Nc1ccc2ncsc2c1)CNC(=O)c1ccc(Nc2nc(NC3(c4ccc(Cl)cc4)CC3)nc(OCC(F)(F)F)n2)cc1F` [Compound 3566]: under setting [2], the EC50 is 0.01 to 10 nM.

As to `O=C(NCCCCNC(=O)c1ccc(Nc2nc(NC3(c4ccc(Cl)cc4)CC3)nc(OCC(F)(F)F)n2)cc1)C(=O)Nc1cc(F)cc(F)c1` [Compound 3396], under setting [2], the EC50 lay within 0.01 to 10 nM. On to `CC(C)(CNC(=O)C(N)=O)CNC(=O)c1ccc(Nc2nc(NC3(c4ccccc4Cl)CC3)nc(OCC(F)(F)F)n2)cc1` [Compound 3265], for which the EC50 under setting [2] is 10 to 1000 nM. Take `O=C(NC[C@H](NC(=O)c1ccc(Nc2nc(NC3(c4ccc(Cl)cc4)CC3)nc(OCC(F)(F)F)n2)cc1)C(=O)Cl)C(=O)Nc1cccc(-n2cnnc2)c1` [Compound 3784]: under setting [1], the EC50 lay within 0.01 to 10 nM. With `COc1ccc(CNC(=O)C(=O)NC[C@H](NC(=O)c2ccc(Nc3nc(NC4(c5ccc(Cl)cc5)CC4)nc(OCC(F)(F)F)n3)cc2)C(=O)O)cc1` [Compound 1167], the half-maximal effective concentration (EC50) was 1.32 nM under setting [5] and 0.01 to 10 nM under setting [3].

On to `COc1cc(NC(=O)C(=O)NCC(C)(C)CNC(=O)c2ccc(Nc3nc(NC4(c5ccc(Cl)cc5)CC4)nc(OCC(F)(F)F)n3)cc2)ccn1` [Compound 3251], for which, under setting [2], the EC50 lay in the range of 0.01 to 10 nM. With `Cc1ccc(NC(=O)C(=O)NCC(C)(C)CNC(=O)c2ccc(Nc3nc(NC4(c5ccc(Cl)cc5)CC4)nc(OCc4ccc(Cl)cc4)n3)cc2)cc1` [Compound 3849], under setting [1], the 50% effective concentration (EC50) fell in the range of 0.01 to 10 nM. For the compound `O=C(NCC[C@H](NC(=O)c1ccc(Nc2nc(NC3(c4ccc(Cl)cc4)CC3)nc(OCC(F)(F)F)n2)cc1)C(=O)O)C(=O)NCC1OCCc2ccccc21` (stereo partly shown) [Compound 1341], the EC50 under setting [3] is 0.01 to 10 nM. Regarding `COC(=O)[C@H](CNC(=O)C(=O)Nc1cccc(OC(F)F)c1)NC(=O)c1ccc(Nc2nc(NC3(c4ccc(Cl)cc4)CC3)nc(OCC(F)(F)F)n2)cc1` [Compound 3708], the EC50 under setting [1] lay in the range of 0.01 to 10 nM. For `CC(C)(CNC(=O)C(=O)Nc1ccc(F)c(Cl)c1)CNC(=O)c1ccc(Nc2nc(NC3(c4ccc(Cl)cc4)CC3)nc(OCC(F)(F)F)n2)cc1` [Compound 3059], under setting [2], the EC50 was in the range of 0.01 to 10 nM. On the same count and under the same terms, next, `NC(=O)c1ccc(NC(=O)C(=O)NC/C(=N/C(=O)c2ccc(Nc3nc(NC4(c5ccc(Cl)cc5)CC4)nc(OCC(F)(F)F)n3)cc2)C(=O)O)cc1` [Compound 3156]: 0.01 to 10 nM.

Take `COc1cccc(NC(=O)C(=O)NCC[C@H](NC(=O)c2ccc(Nc3nc(NC4(c5ccc(Cl)cc5)CC4)nc(OCC(F)(F)F)n3)cc2)C(=O)O)c1` [Compound 1270]: the EC50 is 0.13 nM under setting [5] and 0.01 to 10 nM under setting [3]. As to `CC(C)(CNC(=O)C(=O)N1CCc2cc(F)ccc21)CNC(=O)c1ccc(Nc2nc(NC3(c4ccc(Cl)cc4)CC3)nc(OCC(F)(F)F)n2)cc1` [Compound 1585], the EC50 was 0.03 nM under setting [5] and 0.01 to 10 nM under setting [3]. With `CN(CCCN(C)C(=O)c1ccc(Nc2nc(NC3(c4ccc(Cl)cc4)CC3)nc(OCC(F)(F)F)n2)cc1)C(=O)C(=O)Nc1nccs1` [Compound 3430], the EC50 reads like this: under setting [4], 1.45 nM; under setting [2], 0.01 to 10 nM. `O=C(NCC[C@H](NC(=O)c1ccc(Nc2nc(NC3(c4ccc(Cl)cc4)CC3)nc(OCC(F)(F)F)n2)cc1)C(=O)O)C(=O)NCC1CCCOC1` (stereo partly shown) [Compound 1208]: the EC50 reads like this: under setting [5], 0.21 nM; under setting [3], 0.01 to 10 nM. Regarding `Cc1ccc(NC(=O)C(=O)NCC(C)(C)CNC(=O)c2ccc(Nc3nc(NC4(c5ccc(Cl)cc5)CC4)nc(OCC(F)(F)F)n3)cc2-n2nnnc2C)cc1` [Compound 3518], the EC50 is 0.097 nM under setting [4] and 0.01 to 10 nM under setting [2].

In the case of `O=C(NC[C@H](NC(=O)c1ccc(Nc2nc(NC3(c4ccc(Cl)cc4)CC3)nc(OCC(F)(F)F)n2)cc1)C(=O)O)C(=O)Nc1ccc(Cn2cncn2)cc1` [Compound 3267], under setting [2], the half-maximal effective concentration (EC50) lay within 0.01 to 10 nM.
